Data reported in ChEMBL document CHEMBL4765432, “Design and synthesis of novel Flavone-based histone deacetylase inhibitors antagonizing activation of STAT3 in breast cancer” (Eur J Med Chem, 2020).
Active and inactive are the calls of the source. The rule behind the calls is not given here.

Experiments:
Histone deacetylase 7 = Histone deacetylase 7 (Homo sapiens, UniProt Q8WUI4); assay: Inhibition of recombinant human N-terminal GST-tagged HDAC-7 (501 to end residues) expressed in baculovirus infected in Sf9 cells using Boc-Lys (q-Ac)-AMC as substrate incubated for 10 mins followed by substrate addition and measured after 30 mins by fluorescence based assay
[1] = Oral bioavailability in Sprague-Dawley rat at 20 mg/kg measured upto 12 hrs by LC-MS/MS analysis; type: ADME, organism-based; settings: in vivo
4T1 [2] = assay: Induction of apoptosis in mouse 4T1 cells assessed as early apoptotic cells at 5 uM incubated for 72 hrs by annexinV-FITC and PI staining based flow cytometry analysis (reference value: 1.65 %); type: functional
MDA-MB-231 [3] = assay: Induction of apoptosis in human MDA-MB-231 cells assessed as decrease in Bcl-2 expression incubated for 48 hrs by Western blot analysis; type: functional, cell-based; settings: dose 0.5-10 µM
[4] = Genotoxicity in Salmonella typhimurium TA1537 by Ames test; type: toxicity; settings: salmonella enterica subsp. enterica serovar typhimurium
[5] = Genotoxicity in Salmonella typhimurium TA97a by Ames test; type: toxicity; settings: salmonella enterica subsp. enterica serovar typhimurium
4T1 [6] = assay: Induction of cell cycle arrest in mouse 4T1 cells assessed as G0/G1 phase accumulation at 1 uM incubated for 24 hrs by PI staining based flow cytometry analysis (reference value: 42.06 %); type: functional
[7] = target: Polyamine deacetylase HDAC10 (Homo sapiens, UniProt Q969S8); assay: Inhibition of recombinant human N-terminal GST-tagged HDAC-10 (1 to 482 residues) expressed in baculovirus infected in Sf9 cells using Boc-Lys (q-Ac)-AMC as substrate incubated for 10 mins followed by substrate addition and measured after 30 mins by fluorescence based assay
[8] = Tmax in Sprague-Dawley rat at 20 mg/kg, iv measured upto 12 hrs by LC-MS/MS analysis; type: ADME, organism-based; settings: in vivo
4T1 [9] = assay: Induction of cell cycle arrest in mouse 4T1 cells assessed as increase in p21 expression at 0.25 to 5 uM incubated for 24 hrs by Western blot analysis; type: functional, cell-based; settings: dose 0.25-5 µM
MDA-MB-231 [10] = assay: Induction of cell cycle arrest in human MDA-MB-231 cells assessed as G2/M phase accumulation at 2 uM incubated for 24 hrs PI staining based by flow cytometry analysis (reference value: 27.08 %); type: functional
Histone deacetylase 9 = Histone deacetylase 9 (Homo sapiens, UniProt Q9UKV0); assay: Inhibition of recombinant human N-terminal GST-tagged HDAC-9 (548 to end residues) expressed in baculovirus infected in Sf9 cells at 10 uM using Boc-Lys (q-Ac)-AMC as substrate incubated for 10 mins followed by substrate addition and measured after 30 mins by fluorescence based assay relative to control; settings: time 40.0 min
NCI-H1581 = assay: Cytotoxicity against human NCI-1581 cells assessed as reduction in cell viability incubated for 48 hrs by MTT assay; type: functional, cell-based; settings: NCI-H1581, 48 h
MDA-MB-231 [11] = assay: Induction of apoptosis in human MDA-MB-231 cells assessed as necrotic cells at 5 uM incubated for 72 hrs by annexinV-FITC and PI staining based flow cytometry analysis (reference value: 0.330 %); type: functional
Bcap37 = assay: Cytotoxicity against human Bcap37 cells assessed as reduction in cell viability incubated for 48 hrs by MTT assay; type: functional, cell-based; settings: Bcap37, 48 h
[12] = target: Signal transducer and activator of transcription 3 (Homo sapiens) (UniProt P40763); assay: Inhibition of STAT3 in human MDA-MB-231 cells assessed as reduction in STAT-3 phosphorylation incubated for 8 hrs by Western blot analysis; type: cell-based; settings: dose 2.5-20 µM
HEK-293T = assay: Cytotoxicity against human HEK293T cells assessed as reduction in cell viability incubated for 48 hrs by MTT assay; type: ADME, cell-based
[13] = Cmax in Sprague-Dawley rat at 20 mg/kg, po measured upto 12 hrs by LC-MS/MS analysis; type: ADME, organism-based; set-up: route oral, dose 20 mg/kg, time <=12; settings: in vivo
A549 = assay: Cytotoxicity against human A549 cells assessed as reduction in cell viability incubated for 48 hrs by MTT assay; type: functional, cell-based; settings: A549, 48 h
Histone deacetylase 1 = Histone deacetylase 1 (Homo sapiens, UniProt Q13547); assay: Inhibition of recombinant human C-terminal GST-tagged full length HDAC-1 expressed in baculovirus infected in Sf9 cells using Boc-Lys (q-Ac)-AMC as substrate incubated for 10 mins followed by substrate addition and measured after 30 mins by fluorescence based assay
MDA-MB-231 [14] = assay: Induction of cell cycle arrest in human MDA-MB-231 cells assessed as increase in p21 expression at 0.25 to 5 uM incubated for 24 hrs by Western blot analysis; type: functional, cell-based; settings: dose 0.25-5 µM
[15] = AUC (0 to infinity) in Sprague-Dawley rat at 20 mg/kg, iv measured upto 12 hrs by LC-MS/MS analysis; type: ADME, organism-based; set-up: route intravenous, dose 20 mg/kg, time <=12; settings: in vivo
MDA-MB-231 [16] = assay: Induction of apoptosis in human MDA-MB-231 cells assessed as early apoptotic cells at 5 uM incubated for 72 hrs by annexinV-FITC and PI staining based flow cytometry analysis (reference value: 5.57 %); type: functional
4T1 [17] = assay: Induction of apoptosis in mouse 4T1 cells assessed as early apoptotic cells at 1 uM incubated for 72 hrs by annexinV-FITC and PI staining based flow cytometry analysis (reference value: 1.65 %); type: functional
T47D = assay: Cytotoxicity against human T47D cells assessed as reduction in cell viability incubated for 48 hrs by MTT assay; type: functional, cell-based
A-375 = assay: Cytotoxicity against human A-375 cells assessed as reduction in cell viability incubated for 48 hrs by MTT assay; type: functional, cell-based; settings: A-375, 48 h
[18] = AUC (0 to infinity) in Sprague-Dawley rat at 20 mg/kg, po measured upto 12 hrs by LC-MS/MS analysis; type: ADME, organism-based; set-up: route oral, dose 20 mg/kg, time <=12; settings: in vivo
[19] = target: Protein deacetylase HDAC6 (Homo sapiens, UniProt Q9UBN7); assay: Inhibition of recombinant human N-terminal GST-tagged full length HDAC-6 expressed in baculovirus infected in Sf9 cells using Boc-Lys (q-Ac)-AMC as substrate incubated for 10 mins followed by substrate addition and measured after 30 mins by fluorescence based assay
MDA-MB-231 [20] = assay: Induction of apoptosis in human MDA-MB-231 cells assessed as late apoptotic cells at 2.5 uM incubated for 72 hrs by annexinV-FITC and PI staining based flow cytometry analysis (reference value: 3.79 %); type: functional
MDA-MB-231 [21] = assay: Induction of cell cycle arrest in human MDA-MB-231 cells assessed as S phase accumulation at 1 uM incubated for 24 hrs by PI staining based flow cytometry analysis (reference value: 43.82 %); type: functional
MDA-MB-231 [22] = assay: Induction of apoptosis in human MDA-MB-231 cells assessed as early apoptotic cells at 1 uM incubated for 72 hrs by annexinV-FITC and PI staining based flow cytometry analysis (reference value: 5.57 %); type: functional
PC-3 = assay: Cytotoxicity against human PC-3 cells assessed as reduction in cell viability incubated for 48 hrs by MTT assay; type: functional, cell-based; settings: PC-3, 48 h
MDA-MB-231 [23] = assay: Induction of apoptosis in human MDA-MB-231 cells assessed as effect on Bax expression at 0.5 to 10 uM incubated for 48 hrs by Western blot analysis; type: functional, cell-based; settings: dose 0.5-10 µM
L02 = assay: Cytotoxicity against human L02 cells assessed as reduction in cell viability incubated for 48 hrs by MTT assay; type: ADME, cell-based; settings: L02, 48 h
[24] = Genotoxicity in Salmonella typhimurium TA98 by Ames test; type: toxicity; settings: salmonella enterica subsp. enterica serovar typhimurium

Chain of Histone deacetylase 1 (Q13547 whole entry): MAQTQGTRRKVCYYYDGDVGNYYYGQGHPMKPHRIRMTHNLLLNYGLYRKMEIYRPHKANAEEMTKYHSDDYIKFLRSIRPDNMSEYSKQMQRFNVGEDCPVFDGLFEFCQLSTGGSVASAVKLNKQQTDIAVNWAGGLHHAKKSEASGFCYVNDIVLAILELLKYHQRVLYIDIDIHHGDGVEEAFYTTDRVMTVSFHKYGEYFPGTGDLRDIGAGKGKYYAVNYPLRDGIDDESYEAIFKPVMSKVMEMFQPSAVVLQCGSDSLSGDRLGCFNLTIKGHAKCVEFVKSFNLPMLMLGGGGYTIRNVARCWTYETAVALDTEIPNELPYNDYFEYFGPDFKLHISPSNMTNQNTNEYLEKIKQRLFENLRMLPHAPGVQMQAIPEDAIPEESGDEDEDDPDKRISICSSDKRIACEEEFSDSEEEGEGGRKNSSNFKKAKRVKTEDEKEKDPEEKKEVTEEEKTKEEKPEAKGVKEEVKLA
Chain of Polyamine deacetylase HDAC10 (Q969S8 whole entry, the tested form may be a part): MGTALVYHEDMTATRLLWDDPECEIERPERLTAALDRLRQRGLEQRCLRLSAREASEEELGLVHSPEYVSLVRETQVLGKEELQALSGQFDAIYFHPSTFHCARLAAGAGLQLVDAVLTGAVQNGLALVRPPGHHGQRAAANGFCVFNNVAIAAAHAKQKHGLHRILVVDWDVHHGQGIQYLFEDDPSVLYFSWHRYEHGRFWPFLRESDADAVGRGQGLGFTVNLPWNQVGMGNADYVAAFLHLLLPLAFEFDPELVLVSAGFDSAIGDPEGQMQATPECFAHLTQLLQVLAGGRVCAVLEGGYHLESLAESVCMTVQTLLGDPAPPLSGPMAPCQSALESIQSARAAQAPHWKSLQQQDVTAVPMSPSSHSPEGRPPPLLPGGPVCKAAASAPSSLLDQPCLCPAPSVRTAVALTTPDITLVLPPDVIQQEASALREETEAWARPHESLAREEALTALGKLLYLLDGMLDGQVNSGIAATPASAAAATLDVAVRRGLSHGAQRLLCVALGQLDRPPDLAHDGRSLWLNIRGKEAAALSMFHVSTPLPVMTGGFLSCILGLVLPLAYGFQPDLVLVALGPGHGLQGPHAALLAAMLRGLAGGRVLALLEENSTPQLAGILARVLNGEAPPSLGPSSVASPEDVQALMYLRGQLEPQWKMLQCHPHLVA
Chain of Protein deacetylase HDAC6 (Q9UBN7 whole entry): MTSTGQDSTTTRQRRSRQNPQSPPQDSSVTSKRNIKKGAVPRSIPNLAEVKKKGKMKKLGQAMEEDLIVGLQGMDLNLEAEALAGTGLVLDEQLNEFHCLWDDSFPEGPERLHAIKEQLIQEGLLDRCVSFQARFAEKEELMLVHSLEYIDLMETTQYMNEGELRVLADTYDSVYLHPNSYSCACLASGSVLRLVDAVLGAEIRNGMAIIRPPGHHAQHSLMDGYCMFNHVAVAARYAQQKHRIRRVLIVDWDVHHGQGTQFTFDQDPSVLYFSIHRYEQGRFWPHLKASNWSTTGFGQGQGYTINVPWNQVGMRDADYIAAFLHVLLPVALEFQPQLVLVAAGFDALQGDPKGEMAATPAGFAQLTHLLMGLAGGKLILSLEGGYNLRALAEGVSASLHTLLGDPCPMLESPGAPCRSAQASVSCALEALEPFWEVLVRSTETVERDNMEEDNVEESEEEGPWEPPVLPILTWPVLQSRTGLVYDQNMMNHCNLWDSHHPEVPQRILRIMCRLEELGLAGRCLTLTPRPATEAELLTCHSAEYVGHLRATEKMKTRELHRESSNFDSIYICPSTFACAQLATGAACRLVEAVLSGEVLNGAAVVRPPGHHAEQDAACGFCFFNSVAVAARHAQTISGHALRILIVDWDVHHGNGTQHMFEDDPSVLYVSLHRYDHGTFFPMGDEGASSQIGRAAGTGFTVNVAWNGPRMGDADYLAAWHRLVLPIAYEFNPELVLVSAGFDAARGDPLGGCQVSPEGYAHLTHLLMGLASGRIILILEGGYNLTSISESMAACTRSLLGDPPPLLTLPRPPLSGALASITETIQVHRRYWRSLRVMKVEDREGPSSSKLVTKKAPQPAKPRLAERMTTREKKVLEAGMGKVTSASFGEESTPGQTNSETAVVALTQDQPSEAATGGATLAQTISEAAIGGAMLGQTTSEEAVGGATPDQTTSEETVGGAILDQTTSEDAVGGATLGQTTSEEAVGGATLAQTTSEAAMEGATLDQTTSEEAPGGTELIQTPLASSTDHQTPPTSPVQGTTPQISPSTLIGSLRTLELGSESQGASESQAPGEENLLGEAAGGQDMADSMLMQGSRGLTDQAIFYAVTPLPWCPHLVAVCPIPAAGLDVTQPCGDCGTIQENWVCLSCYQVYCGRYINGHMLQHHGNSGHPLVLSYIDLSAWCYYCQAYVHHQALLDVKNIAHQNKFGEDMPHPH
Chain of Histone deacetylase 9 (Q9UKV0 whole entry): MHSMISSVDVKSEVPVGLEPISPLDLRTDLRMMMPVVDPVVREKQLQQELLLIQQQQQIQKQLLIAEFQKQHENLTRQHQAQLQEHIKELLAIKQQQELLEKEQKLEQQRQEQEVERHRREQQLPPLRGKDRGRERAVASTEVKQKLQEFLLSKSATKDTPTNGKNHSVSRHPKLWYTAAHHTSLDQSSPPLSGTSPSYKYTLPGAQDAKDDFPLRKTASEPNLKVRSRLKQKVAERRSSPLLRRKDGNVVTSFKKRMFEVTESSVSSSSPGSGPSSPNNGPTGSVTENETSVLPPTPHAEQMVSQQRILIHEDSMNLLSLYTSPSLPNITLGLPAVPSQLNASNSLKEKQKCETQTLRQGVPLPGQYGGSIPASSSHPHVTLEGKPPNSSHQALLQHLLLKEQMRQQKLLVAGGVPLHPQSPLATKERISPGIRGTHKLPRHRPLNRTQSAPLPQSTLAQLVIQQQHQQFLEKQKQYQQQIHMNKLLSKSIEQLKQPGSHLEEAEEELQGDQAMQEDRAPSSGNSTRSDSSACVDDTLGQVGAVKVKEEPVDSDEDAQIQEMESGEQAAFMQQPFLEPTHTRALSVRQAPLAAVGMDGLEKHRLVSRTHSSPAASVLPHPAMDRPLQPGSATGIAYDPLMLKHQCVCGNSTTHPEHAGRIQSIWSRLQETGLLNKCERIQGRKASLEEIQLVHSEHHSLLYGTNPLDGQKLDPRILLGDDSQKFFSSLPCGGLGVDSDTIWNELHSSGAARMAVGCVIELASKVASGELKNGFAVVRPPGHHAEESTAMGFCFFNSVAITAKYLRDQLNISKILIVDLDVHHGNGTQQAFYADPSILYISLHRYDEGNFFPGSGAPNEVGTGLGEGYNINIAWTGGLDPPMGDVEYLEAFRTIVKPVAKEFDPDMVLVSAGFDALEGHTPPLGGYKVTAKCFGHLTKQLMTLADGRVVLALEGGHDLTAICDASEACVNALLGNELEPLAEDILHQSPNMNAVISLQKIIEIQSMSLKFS
Chain of Histone deacetylase 7 (Q8WUI4 whole entry): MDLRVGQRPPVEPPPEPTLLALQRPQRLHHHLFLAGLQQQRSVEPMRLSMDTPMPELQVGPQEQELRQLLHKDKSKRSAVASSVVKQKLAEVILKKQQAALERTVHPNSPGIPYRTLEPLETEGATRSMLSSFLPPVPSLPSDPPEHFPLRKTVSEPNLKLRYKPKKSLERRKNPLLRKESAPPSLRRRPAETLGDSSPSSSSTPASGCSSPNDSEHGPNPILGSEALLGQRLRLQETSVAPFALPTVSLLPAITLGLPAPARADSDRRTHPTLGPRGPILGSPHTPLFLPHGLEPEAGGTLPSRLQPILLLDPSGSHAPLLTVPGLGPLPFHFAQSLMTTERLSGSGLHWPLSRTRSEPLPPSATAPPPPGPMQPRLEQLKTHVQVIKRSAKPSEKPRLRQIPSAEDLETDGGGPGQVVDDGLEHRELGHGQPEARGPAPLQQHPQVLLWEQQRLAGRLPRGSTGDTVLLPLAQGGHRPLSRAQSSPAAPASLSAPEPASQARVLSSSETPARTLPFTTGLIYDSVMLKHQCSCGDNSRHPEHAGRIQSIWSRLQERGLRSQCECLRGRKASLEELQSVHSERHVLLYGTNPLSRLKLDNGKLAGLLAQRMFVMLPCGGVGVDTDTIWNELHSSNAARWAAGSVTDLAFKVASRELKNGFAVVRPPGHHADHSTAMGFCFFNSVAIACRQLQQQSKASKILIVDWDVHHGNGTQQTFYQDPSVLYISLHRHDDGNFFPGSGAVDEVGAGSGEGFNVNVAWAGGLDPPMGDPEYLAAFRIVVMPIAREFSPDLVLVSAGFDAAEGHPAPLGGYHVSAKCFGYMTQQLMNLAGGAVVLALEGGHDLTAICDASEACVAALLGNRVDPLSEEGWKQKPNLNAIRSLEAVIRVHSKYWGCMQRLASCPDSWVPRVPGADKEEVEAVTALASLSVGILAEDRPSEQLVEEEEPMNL
Chain of Signal transducer and activator of transcription 3 (Homo sapiens) (P40763 whole entry): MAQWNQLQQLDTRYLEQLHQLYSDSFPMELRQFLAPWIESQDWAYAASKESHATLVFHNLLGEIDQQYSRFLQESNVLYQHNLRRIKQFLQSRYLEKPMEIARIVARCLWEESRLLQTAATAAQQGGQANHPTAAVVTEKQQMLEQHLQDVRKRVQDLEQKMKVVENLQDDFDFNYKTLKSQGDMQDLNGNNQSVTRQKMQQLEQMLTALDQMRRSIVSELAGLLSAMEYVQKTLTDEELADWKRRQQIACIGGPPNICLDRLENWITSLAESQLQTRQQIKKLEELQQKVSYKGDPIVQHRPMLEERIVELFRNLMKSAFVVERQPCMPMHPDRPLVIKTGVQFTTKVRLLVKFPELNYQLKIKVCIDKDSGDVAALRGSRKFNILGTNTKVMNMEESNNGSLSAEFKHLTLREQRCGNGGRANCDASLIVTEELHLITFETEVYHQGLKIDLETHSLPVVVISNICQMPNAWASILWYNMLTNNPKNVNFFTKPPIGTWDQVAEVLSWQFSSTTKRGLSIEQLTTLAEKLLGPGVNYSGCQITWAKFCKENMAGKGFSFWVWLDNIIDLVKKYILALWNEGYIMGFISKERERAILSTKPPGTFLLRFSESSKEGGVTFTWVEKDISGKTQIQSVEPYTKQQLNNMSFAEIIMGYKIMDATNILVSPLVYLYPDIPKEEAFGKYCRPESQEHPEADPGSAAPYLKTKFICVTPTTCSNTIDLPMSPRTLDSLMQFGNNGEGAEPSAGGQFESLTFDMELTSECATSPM

## CN(C)CCOc1ccc(-c2cc(=O)c3c(O)cc(OCCCCCC(=O)NO)cc3o2)cc1.Cl
Histone deacetylase 7
  IC50: > 10000 nM
[1]
  bioavailability: 57.8%
4T1 [2]
  Activity: 54.9%
MDA-MB-231 [3]
  Activity: Dose-dependent effect
[4]
  Activity: Non-Toxic
[5]
  Activity: Non-Toxic
4T1 [6]
  Activity: 49.62%
[7]
  IC50: 247 nM
[8]
  Tmax: 4.98 min
4T1 [9]
  Activity: Active
MDA-MB-231 [10]
  Activity: 27.89%
Histone deacetylase 9
  inhibition: 26%
NCI-H1581
  IC50: 2320 nM
MDA-MB-231 [11]
  Activity: 0.06%
Bcap37
  IC50: 3280 nM
[12]
  inhibition: Dose-dependent effect
HEK-293T
  IC50: > 10000 nM
[13]
  Cmax: 1280 ng/mL
A549
  IC50: 1080 nM
Histone deacetylase 1
  IC50: 36 nM
MDA-MB-231 [14]
  Activity: Active
[15]
  AUC(0-inf): 2840 ng·h/mL
MDA-MB-231 [16]
  Activity: 55%
4T1 [17]
  Activity: 15.5%
T47D
  IC50: 1530 nM
A-375
  IC50: 1180 nM
[18]
  AUC(0-inf): 1640 ng·h/mL
[19]
  IC50: 25.5 nM
MDA-MB-231 [20]
  Activity: 24.3%
MDA-MB-231 [21]
  Activity: 8.09%
MDA-MB-231 [22]
  Activity: 23.1%
PC-3
  IC50: 1920 nM
MDA-MB-231 [23]
  Activity: inactive
L02
  IC50: > 10000 nM
[24]
  Activity: Toxic
